# Like-named read-outs stand apart in the source and are kept apart here.
# How the values were obtained:
# [1] = test system: IKKβ; set-up: method as in PMID 20481485, PMID 20153655; conditions: 4 at concentrations up to 8 μM; cited from earlier work
# [2] = biological target: T1, JAK2 (Homo sapiens, UniProt O60674); test: KINOMEscan (DiscoveRx) selectivity profiling, JAK2; assay type: binding
# T1 construct: purchased DiscoveRx
# Source text: (§1) This probe was discovered after two separate screening campaigns totaling ~110,000 compounds.
# [3] = Hepatic microsome stability, human; assay type: in vitro ADME; conditions: for Hepatic microsome stability, human (% remaining): compound at 1 μM, 60 min
# Description: (§2) The probes were evaluated using known in vitro ADME/T assays to understand their overall pharmacological properties (Table 2). […] The PAMPA (parallel artificial membrane permeability assay) assay is used as an in vitro model of passive, transcellular permeability. An artificial membrane immobilized on a filter is placed between a donor and acceptor compartment. […] It is not yet known whether it represents a species specific CPY450 inhibitor.
# [4] = test system: NF-κB activation in HEK 293T cells; test: NF-κB reporter gene assay in HEK 293T cells; assay type: cell-based, human; conditions: for Selectivity over NF-κB activation in HEK 293T cells: relative to 697 pre-B cell line potency
# Source text: (§3) Phenotypic screening for noncanonical NF-κB pathway selective inhibitors of IL-8 production in HEK 293, HEK 293T (ML029) and 697 pre-B cells (ML236 and ML237): Most pathways for NF-κB activation converge on the IκB kinases (IKKs), and more than nine signaling routes have been identified. While IKKs therefore represent attractive targets for drug discovery programs, the selectivity envisioned for an acceptable therapeutic index has remained elusive as inhibitors of IKKs indiscriminately suppress all known NF-κB activation pathways. Within this project, new probes were sought that were not active via the currently known receptor-driven pathways and IκB kinases, but attenuated NF-κB transcriptional activity as measured by a luciferase-based reporter gene assay with validation using a panel of known receptor and kinase-based counter screens.
# (§4) Therefore, an HTS campaign was initiated to identify compounds active in these specific cell subtypes by using the established HTS NF-κB reporter gene assay format. This included screening of a larger (~330,600 compound) MLSMR collection to ensure identification of additional chemical scaffolds not previously available. From this campaign two new cell-active NF-κB inhibitors were derived that were both selective against the NF-κB pathway induced by known PKC activators (phorbol myristic acetate (PMA)/ionomycin) and were selective toward the 697 pre-B cell line. It is interesting to note that no compounds meeting probe selectivity criteria were identified within the T cell (HEK 293T) specific assay. The first oxadiazole-based probe ML236 (8) was potent (0.035 μM) in the 697 pre-B cell line and >400-fold selective over both the NF-κB activation in HEK 293T cells and against TNFα-mediated NF-κB activation. In comparison, the second oxazole-based probe 12 is also potent (0.2 μM) in the 697 pre-B cell line and >400-fold selective over both the NF-κB activation in HEK 293T cells and against TNFα mediated NF-κB activation as measured in our reporter gene assay format.
# [5] = test system: NF-κB transcriptional activity in HEK 293 cells; set-up: method as in PMID 20481485; conditions: NF-κB reporter, read-out: IC50 in the HEK 293 cell assay; cited from earlier work
# [6] = biological target: T2, TLK1 (Homo sapiens, UniProt Q9UKI8); test: KINOMEscan (DiscoveRx) selectivity profiling, TLK1; assay type: binding
# T2 construct: purchased DiscoveRx
# T2 sequence (Q9UKI8 1-766): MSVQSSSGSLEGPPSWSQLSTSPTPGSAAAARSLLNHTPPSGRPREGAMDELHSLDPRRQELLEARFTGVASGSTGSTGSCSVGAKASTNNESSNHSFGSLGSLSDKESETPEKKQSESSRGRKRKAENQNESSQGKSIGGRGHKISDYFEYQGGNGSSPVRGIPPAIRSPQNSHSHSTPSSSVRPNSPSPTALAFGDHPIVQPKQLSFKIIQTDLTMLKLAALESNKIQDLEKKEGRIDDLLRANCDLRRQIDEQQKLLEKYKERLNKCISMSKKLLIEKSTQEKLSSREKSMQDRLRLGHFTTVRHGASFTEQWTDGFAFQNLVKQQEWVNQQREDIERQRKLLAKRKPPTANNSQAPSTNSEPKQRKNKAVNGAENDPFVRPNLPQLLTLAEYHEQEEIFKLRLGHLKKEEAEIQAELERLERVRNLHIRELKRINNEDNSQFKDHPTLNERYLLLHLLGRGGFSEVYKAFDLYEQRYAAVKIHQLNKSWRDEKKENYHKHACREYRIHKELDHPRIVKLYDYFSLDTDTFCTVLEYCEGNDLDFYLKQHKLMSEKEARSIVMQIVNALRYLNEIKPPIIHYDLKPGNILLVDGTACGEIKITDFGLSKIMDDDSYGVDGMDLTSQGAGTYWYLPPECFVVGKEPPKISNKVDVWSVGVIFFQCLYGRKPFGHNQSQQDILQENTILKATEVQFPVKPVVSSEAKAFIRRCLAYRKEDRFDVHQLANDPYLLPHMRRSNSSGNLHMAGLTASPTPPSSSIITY
# Source text: as §1
# [7] = test system: Raf; test: KINOMEscan (DiscoveRx) selectivity profiling, Raf; assay type: binding; conditions: 10 uM
# Source text: as §1
# [8] = test system: PKCβ; set-up: method as in PMID 20481485, PMID 20153655; conditions: 4 at concentrations up to 8 μM; cited from earlier work
# [9] = test system: NF-κB activation in 697 pre-B cell line; test: NF-κB reporter gene assay in 697 pre-B cells (PMA/ionomycin induced); assay type: cell-based; conditions: read-out: Potency in 697 pre-B cell line (NF-κB reporter)
# Source text: as §3, §4
# [10] = Hepatic toxicity in immortalized human hepatocytes; assay type: cell-based; conditions: Fa2N-4 immortalized human hepatocytes, read-out: Hepatic toxicity LC50
# Description: as §2
# [11] = Aqueous solubility; assay type: physicochemical; conditions: for Solubility (in words): across pH 5 to 7.4
# Description: as §2
# [12] = test system: PKCθ; set-up: method as in PMID 20481485, PMID 20153655; conditions: 4 at concentrations up to 8 μM; cited from earlier work
# [13] = test system: 353 kinases; test: KINOMEscan (DiscoveRx) selectivity profiling, panel; assay type: binding; conditions: 10 uM; out of the 353 kinases surveyed
# Source text: as §1
# [14] = Hepatic microsome stability, mouse; assay type: in vitro ADME; conditions: compound at 1 μM, 60 min
# Description: as §2
# [15] = PAMPA (parallel artificial membrane permeability assay); assay type: in vitro ADME; conditions: for PAMPA Pe, donor pH 5.0: donor pH 5.0, acceptor pH 7.4, compound at 50 μM; for PAMPA Pe, donor pH 6.2: donor pH 6.2, acceptor pH 7.4, compound at 50 μM; for PAMPA Pe, donor pH 7.4: donor pH 7.4, acceptor pH 7.4, compound at 50 μM
# Description: as §2
# [16] = test system: TNFα-mediated NF-κB activation; test: TNFα-mediated NF-κB activation reporter gene assay; assay type: cell-based; conditions: relative to 697 pre-B cell line potency
# Source text: as §4
# [17] = test system: TNF-α-dependent IL-8 secretion in MCF-7 cells; test: TNF-α-dependent IL-8 secretion in MCF-7 cells; assay type: cell-based
# [18] = test system: NOD2-dependent IL-8 secretion in MCF-7 cells; test: NOD2-dependent IL-8 secretion in MCF-7 cells; assay type: cell-based
# [19] = test system: NOD1 (γ-tri-DAP) dependent IL-8 secretion; test: NOD1 (γ-tri-DAP) dependent IL-8 secretion; assay type: cell-based
# [20] = aqueous medium, pH 6.2, aqueous buffer, read-out: Aqueous solubility pH 6.2
# [21] = pH 5.0, read-out: Aqueous solubility pH 5.0
# [22] = pH 7.4, read-out: Aqueous solubility pH 7.4
# [23] = aqueous medium, aqueous buffer, pH 5.0, read-out: Aqueous solubility pH 5.0
# [24] = aqueous medium, pH 7.4, aqueous buffer, read-out: Aqueous solubility pH 7.4
# T1 sequence (O60674 whole entry): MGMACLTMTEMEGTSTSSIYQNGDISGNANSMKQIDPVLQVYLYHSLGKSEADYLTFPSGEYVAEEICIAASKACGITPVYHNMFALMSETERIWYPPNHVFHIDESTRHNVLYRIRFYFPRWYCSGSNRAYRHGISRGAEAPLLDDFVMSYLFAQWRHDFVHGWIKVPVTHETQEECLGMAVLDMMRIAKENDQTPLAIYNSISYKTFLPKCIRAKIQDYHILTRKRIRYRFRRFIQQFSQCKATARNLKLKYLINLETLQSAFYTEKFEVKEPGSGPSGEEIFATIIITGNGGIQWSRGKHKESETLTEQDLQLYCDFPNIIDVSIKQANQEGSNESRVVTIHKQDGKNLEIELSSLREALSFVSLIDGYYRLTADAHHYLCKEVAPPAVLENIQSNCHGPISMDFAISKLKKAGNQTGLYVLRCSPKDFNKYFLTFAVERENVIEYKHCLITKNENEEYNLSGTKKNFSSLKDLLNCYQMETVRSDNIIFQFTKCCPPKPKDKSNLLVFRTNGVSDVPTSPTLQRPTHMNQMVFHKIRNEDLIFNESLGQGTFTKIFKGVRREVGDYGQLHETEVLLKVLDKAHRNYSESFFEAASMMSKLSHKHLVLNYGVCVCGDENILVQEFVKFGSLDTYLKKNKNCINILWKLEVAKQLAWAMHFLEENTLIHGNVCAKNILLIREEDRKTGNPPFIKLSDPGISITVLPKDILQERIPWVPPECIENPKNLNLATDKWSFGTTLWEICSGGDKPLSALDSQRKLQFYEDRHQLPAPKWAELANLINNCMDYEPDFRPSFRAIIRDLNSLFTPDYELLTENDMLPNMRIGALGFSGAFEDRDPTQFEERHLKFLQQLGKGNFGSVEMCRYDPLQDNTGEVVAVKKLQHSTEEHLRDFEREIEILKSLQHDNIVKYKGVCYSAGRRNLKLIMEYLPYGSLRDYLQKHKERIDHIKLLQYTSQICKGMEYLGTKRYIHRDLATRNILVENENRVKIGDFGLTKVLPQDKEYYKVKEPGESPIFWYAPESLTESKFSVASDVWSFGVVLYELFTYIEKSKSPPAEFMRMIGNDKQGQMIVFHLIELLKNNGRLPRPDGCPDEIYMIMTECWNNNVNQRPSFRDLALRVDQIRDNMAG
Compound,Suppression of IKKβ [1],"Hepatic microsome stability, human (% remaining) [3]",IC50 [9],CC50 [10],Solubility (in words) [11],"solubility [11, 20]","solubility [11, 21]","solubility [11, 22]",Suppression of PKCθ [12],"Hepatic microsome stability, mouse (% remaining) [14]","PAMPA Pe, donor pH 5.0 [15]","PAMPA Pe, donor pH 6.2 [15]","PAMPA Pe, donor pH 7.4 [15]",Selectivity over NF-κB activation in HEK 293T cells [4],"solubility [11, 23]","solubility [11, 24]",Selectivity against TNFα-mediated NF-κB activation [16],also measured
Cc1cc2nc(NCCCO)n(CC(=O)c3cc(C(C)(C)C)c(O)c(C(C)(C)C)c3)c2cc1C [Probe 4],failed to suppress,26 % remaining,> 30 µM,> 50 µM,good solubility,1.1 µM,90 µM,1.5 µM,failed to suppress,0.5 % remaining,299 10^−6 cm/s,710 10^−6 cm/s,441 10^−6 cm/s,–,–,–,–,"inhibition at 10 µM [2]: 53%; IC50 ([4]; Homo sapiens, HEK 293T cells, read-out: Activity in HEK 293T cell line (NF-κB reporter)): > 30 µM; IC50 [5]: 0.07 µM; inhibition at 10 µM [6]: 70%; Raf inhibition [7]: 57%; Suppression of PKCβ [8]: failed to suppress; Number of kinases inhibited >50% [13]: 3"
CCOc1ccc(-c2nc(CSCC(=O)NC3CC3)c(C)o2)cc1 [Probe 12],–,22.7 % remaining,0.2 µM,> 50 µM,good solubility,133 µM,–,–,–,0 % remaining,513 10^−6 cm/s,541 10^−6 cm/s,59 10^−6 cm/s,> 400 fold,112 µM,160 µM,> 400 fold,–
"CN[C@@H]1C[C@H]2O[C@@](C)([C@@H]1OC)n1c3ccccc3c3c4c(c5c6ccccc6n2c5c31)C(=O)NC4 [staurosporine, reference compound]",potent inhibition,–,–,–,–,–,–,–,potent inhibition,–,–,–,–,–,–,–,–,–
Cc1ccc(S(=O)(=O)n2c(N)nc3ccccc32)cc1 [Probe 13],–,41.8 % remaining,–,> 50 µM,moderate solubility,–,7.0 µM,7.0 µM,–,0.8 % remaining,491 10^−6 cm/s,562 10^−6 cm/s,382 10^−6 cm/s,–,–,–,–,"Inhibition of TNF-α-dependent IL-8 secretion [17]: neither inhibited; Inhibition of NOD2-dependent IL-8 secretion [18]: neither inhibited; solubility ([11]; pH 6.2, read-out: Aqueous solubility pH 6.2): 5.9 µM; Inhibition of NOD1 (γ-tri-DAP) dependent IL-8 secretion [19]: selectively inhibited IL-8 secretion"
CNC(=O)CCc1nc(-c2ccc(C(C)(C)C)cc2)no1 [Probe 8],–,100 % remaining,0.035 µM,> 50 µM,good solubility,101 µM,–,–,–,4.9 % remaining,751 10^−6 cm/s,755 10^−6 cm/s,746 10^−6 cm/s,> 400 fold,92 µM,103 µM,> 400 fold,Metabolic stability in human hepatic microsomes (in words) ([3]; one hour of exposure): no apparent instability

# — publication PMC3678512, “Synthesis and physicochemical characterization of novel phenotypic probes targeting the nuclear factor-kappa B signaling pathway” (Beilstein Journal of Organic Chemistry, 2013)
